The source made the active and inactive calls. No rule for the calls is given here.
test: compounds lowering VP16-driven luciferase output – cell-based, luminescence, dose response, counter-screen for LRH-1 inverse agonist project, late-stage follow-up (AID 651974); settings: HEK293 cells transfected with Gal4-VP16 and pGL4.31 luciferase reporter

| SMILES | IC50 |
| --- | --- |
| CCOc1ccc(OCCC(=O)OCC(=O)Nc2ccc3c(c2)OCCO3)cc1 | > 35.9 µM (inactive) |
| COc1ccc(CCNC(=O)COC(=O)Cc2ccccc2[N+](=O)[O-])cc1 | > 35.9 µM (inactive) |
| O=C(Nc1nc2c(Cl)cccc2s1)c1ccc([N+](=O)[O-])o1 | > 35.9 µM (inactive) |
| O=C(COC(=O)CCN1C(=O)C2CC=CCC2C1=O)NCCc1ccc(F)cc1 (stereo not given) | > 35.9 µM (inactive) |
| Cc1cc(Br)ccc1NC(=O)CN1C(=O)CCC1=O | > 35.9 µM (inactive) |
| COC(=O)c1ccc(NC(=O)COc2cccc(-n3cnnn3)c2)cc1 | > 35.9 µM (inactive) |
| CCOc1ccc(NC(=O)CSc2nccn(-c3ccc4c(c3)OCCO4)c2=O)cc1 | > 35.9 µM (inactive) |
| Cc1ccc(NC(=O)COC(=O)C(NS(=O)(=O)c2ccc(Cl)cc2)C(C)O)c(Br)c1 (stereo not given) | > 35.9 µM (inactive) |
| COc1ccc(-n2c(N)c(C(=O)NCc3cccnc3)sc2=S)cc1 | > 35.9 µM (inactive) |
| COCC(=O)NC1CCN(CC(=O)Nc2ccc(OC)cc2[N+](=O)[O-])CC1 | > 35.9 µM (inactive) |
| CC1SC(C)C(=O)N(CC(=O)Nc2ccc3c(c2)OCO3)C1=O (stereo not given) | > 35.9 µM (inactive) |
| CC(=O)Nc1ccc(NC(=O)CSc2ccc(-c3ccco3)nn2)cc1 | > 35.9 µM (inactive) |
| CCOc1ccc(NC(=O)CSc2nc3[nH]ncc3c(=O)[nH]2)cc1 | > 35.9 µM (inactive) |
| CC(=O)Nc1ncc(Cc2cc(Cl)ccc2Cl)s1 | > 35.9 µM (inactive) |
| O=C(NCC1CCCO1)c1ccc(NC(=O)c2cccc([N+](=O)[O-])c2)cc1 (stereo not given) | > 35.9 µM (inactive) |
| CCCc1cc(=O)oc2cc(C)cc(OCC(=O)NC3CC3)c12 | > 35.9 µM (inactive) |
| COc1ccc(NC(=O)COC(=O)c2c(-c3ccccc3)noc2C)cc1 | > 35.9 µM (inactive) |
| Cc1cccc(NC(=O)COC(=O)Cc2cccs2)c1C | > 35.9 µM (inactive) |
| O=c1[nH]c(Nc2ccc3c(c2)OCCO3)nnc1Cc1ccccc1 | > 35.9 µM (inactive) |
| Cc1nn(CC(=O)Nc2ccc3c(c2)OCCO3)c(C)c1[N+](=O)[O-] | > 35.9 µM (inactive) |
| COC(=O)c1ccc(CNC(=O)COC(=O)c2cc(Cl)nc(Cl)c2)cc1 | > 35.9 µM (inactive) |
| COc1ccc(NC(=O)CN2C(=O)NC3(CCCC3)C2=O)cc1 | > 35.9 µM (inactive) |
| CN1CCN(c2ccc(S(=O)(=O)N3CCCCC3)cc2NC(=O)COc2ccc([N+](=O)[O-])cc2)CC1 | > 35.9 µM (inactive) |
| CCOc1ccc(NC(=O)COC(=O)c2ccc3c(c2)OCCO3)cc1 | > 35.9 µM (inactive) |

| SMILES | IC50 |
| --- | --- |
| CCOc1ccc(OCCN2C(=O)NC(Cc3c[nH]c4ccccc34)C2=O)cc1 (stereo not given) | > 35.9 µM (inactive) |
| Cc1ccc(NC(=O)COC(=O)c2cc(=O)c3ccccc3o2)c(Br)c1 | > 35.9 µM (inactive) |
| COc1ccc(CCNC(=O)COC(=O)c2cccn2C)cc1 | > 35.9 µM (inactive) |
| CCc1c(C)nc(SCC(=O)Nc2ccc3c(c2)OCCO3)[nH]c1=O | > 35.9 µM (inactive) |
| COc1ccc(CCNC(=O)COC(=O)C23CC4CC(CC(C4)C2)C3)cc1 | > 35.9 µM (inactive) |
| Cc1ccc(NC(=O)CSc2sc3c(O)cc(=O)[nH]c3c2C#N)c(F)c1 | > 35.9 µM (inactive) |
| COc1ccccc1Oc1nnnn1-c1ccc(C(N)=O)cc1 | > 35.9 µM (inactive) |
| N#CCSc1ccccc1NC(=O)CN1C(=O)C2CC=CCC2C1=O (stereo not given) | > 35.9 µM (inactive) |
| CCCc1cc(=O)oc2c(C)c(OCC(=O)NCCCn3ccnc3)ccc12 | > 35.9 µM (inactive) |
| CCOc1ccc(NC(=O)CSc2nncc(=O)n2N)cc1 | > 35.9 µM (inactive) |
| O=C(COC(=O)c1ccc(=O)n(Cc2ccccc2)n1)Nc1ccc2c(c1)OCCO2 | > 35.9 µM (inactive) |
| CCCc1nnc(SCC(=O)Nc2ccc(C(=O)OCC)cc2)o1 | > 35.9 µM (inactive) |
| Cc1cc(C)c2nc(NC(=O)c3ccc([N+](=O)[O-])o3)sc2c1 | > 35.9 µM (inactive) |
| COc1ccc(CC(NC(C)=O)C(=O)NC2CCN(c3nnnn3-c3ccccc3)CC2)cc1 (stereo not given) | > 35.9 µM (inactive) |
| CCOc1ccc(NC(=O)COC(=O)CC2CCCCC2)cc1 | > 35.9 µM (inactive) |
| COc1ccc(NC(=O)CSc2nc(N)c(-c3ccccc3)c(=O)[nH]2)cc1 | > 35.9 µM (inactive) |
| O=C(COc1ccc2c3c(c(=O)oc2c1)CCCC3)NCc1ccccn1 | > 35.9 µM (inactive) |
| Cc1cc(C)c2sc(NC(=O)c3ccc([N+](=O)[O-])o3)nc2c1 | > 35.9 µM (inactive) |
| COC(=O)c1ccc(NC(=O)CSc2nncn2-c2cccnc2)cc1 | > 35.9 µM (inactive) |
| Cc1cc(OCC(=O)Nc2nccs2)c2c(C)cc(=O)oc2c1 | > 35.9 µM (inactive) |
| Cc1cccc(NC(=O)COC(=O)CN2C(=O)c3ccccc3C2=O)c1C | > 35.9 µM (inactive) |
| O=C(COC(=O)c1ccc(Br)cc1)Nc1ccccc1Br | > 35.9 µM (inactive) |
| Cc1ccc2cccc(OCC(=O)NCCC3=CCCCC3)c2n1 | > 35.9 µM (inactive) |
| Cc1ccc(NC(=O)COC(=O)C(NS(=O)(=O)c2ccc(Cl)cc2)C(C)O)cc1C (stereo not given) | > 35.9 µM (inactive) |

| SMILES | IC50 |
| --- | --- |
| O=C(Nc1ccc(Br)cn1)c1ccc([N+](=O)[O-])o1 | > 35.9 µM (inactive) |
| Cc1cc(=O)oc2c(C)c(OCC(=O)NC3CC(C)(C)NC(C)(C)C3)ccc12 | > 35.9 µM (inactive) |
| CCCc1cc(=O)oc2cc(OCC(=O)NCCc3ccc(S(N)(=O)=O)cc3)ccc12 | > 35.9 µM (inactive) |
| COc1ccc(NC(=O)COC(=O)c2cc(S(=O)(=O)N3CCCC3)ccc2O)cc1 | > 35.9 µM (inactive) |
| CC(=O)c1ccc(NC(=O)C(C)O/N=C(\N)c2ccccc2)cc1 (stereo not given) | > 35.9 µM (inactive) |
| O=C(COC(=O)c1ccc[n+]([O-])c1)Nc1ccc([N+](=O)[O-])cc1Cl | > 35.9 µM (inactive) |
| COC(=O)c1ccc(NC(=O)CN2CCN(c3ccc(Cl)cc3)CC2)cc1 | > 35.9 µM (inactive) |
| CCCc1cc(=O)oc2c(C)c(OCC(=O)NCCN3CCOCC3)ccc12 | > 35.9 µM (inactive) |
| CCOc1ccc(NC(=O)CSc2nnc(C(C)C)n2CC)cc1 | > 35.9 µM (inactive) |
| O=C(COc1ccc2c3c(c(=O)oc2c1)CCC3)NCc1ccncc1 | > 35.9 µM (inactive) |
| CC(=O)Nc1ccc(N=c2cc([N+](=O)[O-])cc(Cl)n2O)cc1 | > 35.9 µM (inactive) |
| O=C1CCCN2N=C(SCC(=O)Nc3ccc(Br)cc3)SC2=N1 | > 35.9 µM (inactive) |
| COc1ccc(NS(=O)(=O)c2ccc(OCC(=O)N3CCN(C)CC3)cc2)cc1Cl | > 35.9 µM (inactive) |
| CCc1cc(=O)oc2c(C)c(OCC(=O)NCCN3CCOCC3)ccc12 | > 35.9 µM (inactive) |
| COc1ccc(C2(C)NC(=O)N(CC(=O)NCCC3=CCCCC3)C2=O)cc1OC (stereo not given) | > 35.9 µM (inactive) |
| Cc1sc(NC(=O)C(C)C)c(C(=O)Nc2ccccc2)c1C | > 35.9 µM (inactive) |
| NC(=O)C1CCN(C(=O)COc2ccc3c4c(c(=O)oc3c2)CCCC4)CC1 | > 35.9 µM (inactive) |
| O=C(OCC(=O)N1CCN(C(=O)COC(=O)c2ccc(O)cc2O)CC1)c1ccc(O)cc1O | > 35.9 µM (inactive) |
| O=C(Nc1ccccc1)c1oc2ccccc2c1NC(=O)C1CC1 | > 35.9 µM (inactive) |
| O=C(CSc1nnc(CNC(=O)c2ccccc2F)o1)Nc1ccc2c(c1)OCCO2 | > 35.9 µM (inactive) |
| O=C(Nc1ccc(S(=O)(=O)N2CCOCC2)cc1)c1cccc([N+](=O)[O-])c1 | > 35.9 µM (inactive) |
| COC(=O)c1ccc(NC(=O)CSc2nc3ncccc3[nH]2)cc1 | > 35.9 µM (inactive) |
| COc1ccc(CCNC(=O)CSc2nc3[nH]c(=O)cc(O)c3s2)cc1 | > 35.9 µM (inactive) |
| Cc1cc(Br)ccc1NC(=O)CN1C(=O)C2CC=CCC2C1=O (stereo not given) | > 35.9 µM (inactive) |

| SMILES | IC50 |
| --- | --- |
| CCOc1ccc(NC(=O)CN2CCN(CC(=O)Nc3ccc(OC)cc3)CC2)cc1 | > 35.9 µM (inactive) |
| Cc1ccn2c(=O)nc(SCC(=O)Nc3ccc4c(c3)OCCO4)nc2c1 | > 35.9 µM (inactive) |
| O=C(CSc1nnc(CNC(=O)c2c(F)cccc2F)o1)Nc1ccc2c(c1)OCCO2 | > 35.9 µM (inactive) |
| CCOc1ccc(NC(=O)COC(=O)COc2cccc3c2OC(C)(C)C3)cc1 | > 35.9 µM (inactive) |
| CCCN(CC(=O)Nc1ccc(C(C)=O)cc1)CC(=O)Nc1ccccc1C | > 35.9 µM (inactive) |
| COc1ccc(CCNC(=O)COC(=O)c2cc(Cl)nc(Cl)c2)cc1 | > 35.9 µM (inactive) |
| COc1ccc(NC(=O)CSc2ccc3c(c2)OCCO3)cc1 | > 35.9 µM (inactive) |
| COC(=O)c1ccc(NC(=O)CSc2ccc(-c3ccccn3)nn2)cc1 | > 35.9 µM (inactive) |
| CCc1cc(=O)[nH]c(SCC(=O)Nc2ccc3c(c2)OCCO3)n1 | > 35.9 µM (inactive) |
| Cc1ccc(-c2csc(NC(=O)c3ccc([N+](=O)[O-])o3)n2)cc1 | > 35.9 µM (inactive) |
| COc1ccc(CCNC(=O)CSc2nn3c(=O)c(C)nnc3s2)cc1OC | > 35.9 µM (inactive) |
| O=C(NCc1ccco1)c1nn(-c2ccccc2)c(=O)c2ccccc12 | > 35.9 µM (inactive) |
| Cc1cc(Br)ccc1NC(=O)CSc1nnc(CN2CCOCC2)n1C | > 35.9 µM (inactive) |
| CC(C)CC1(C)NC(=O)N(CC(=O)Nc2ccc3c(c2)OCCO3)C1=O (stereo not given) | > 35.9 µM (inactive) |
| O=C(CN1C(=O)CCC1=O)Nc1ccc(Br)cc1 | > 35.9 µM (inactive) |
| COc1ccc(NC(=O)CSc2sc3c(O)cc(=O)[nH]c3c2C#N)c(OC)c1 | > 35.9 µM (inactive) |
| CCCc1cc(=O)oc2c(C)c(OCC(=O)NC3CC(C)(C)NC(C)(C)C3)ccc12 | > 35.9 µM (inactive) |
| COc1ccc(NC(=O)CSc2nnc3ccc(-c4cccnc4)nn23)cc1OC | > 35.9 µM (inactive) |
| COc1ccc(NC(=O)CS(=O)(=O)c2ccc(C)cc2)c(OC)c1 | > 35.9 µM (inactive) |
| COc1ccc(CCNC(=O)CSc2ccc(NC(C)=O)cc2)cc1OC | > 35.9 µM (inactive) |
| COC(=O)c1ccc(NC(=O)CSc2nn3c(=O)c(C)nnc3s2)cc1 | > 35.9 µM (inactive) |
| CCCc1cc(=O)oc2cc(OCC(=O)NCc3ccccn3)ccc12 | > 35.9 µM (inactive) |
| CCn1c(SCC(=O)Nc2ccc(Cl)cc2)nnc1C1CC1 | > 35.9 µM (inactive) |

Reference: PubChem BioAssay AID651974 (The Scripps Research Institute Molecular Screening Center, 2013)
